Reference: patent publication US9284310B2, “Inhibitors of cytomegalovirus” (Boehringer Ingelheim International GmbH, priority 2012, dated 2016)

Legend:
[1] = tested on: HCMV AD169-Bac-Luc2 US2-US6 clone #26 virus; assay: HCMV AD169-Bac Luciferase Assay (Example B); assay type: cell-based, Human Cytomegalovirus; details: Human betaherpesvirus 5, AD169, MRC5, 72 h, read-out: EC50 Example B
Description: This assay format is a luciferase reporter-based assay that determines the ability of compounds to inhibit the infection by detecting a luciferase signal decrease following the addition of BIGlo substrate (preparation indicated below) directly in the culture media. Mono-oxygenation of luciferin is catalyzed by luciferase in the presence of Mg2+, ATP and molecular oxygen. The generation of oxyluciferin is a luminescent reaction that can be detected with the proper platereader. Human Cytomegalovirus AD169-Bac is obtained from Dr. Thomas Shenk at Princeton University (reference paper Yu et al. 2002—J. Virol. 76 (5):2316-2328, herein incorpoarated by reference) and modified by recombineering to introduce a humanized firefly luciferase gene (Luc2) at the US2-US6 position in the HCMV genome. The virus is expanded in MRC-5 cells.
(§1) Serial dilutions of the DMSO stock compound solution are performed using DMSO in columns 2-11 and 14-23. DMSO alone is present in columns 1, 12, 13 and 24. Four μL of the DMSO serial dilutions is obtained and diluted using […] of D-MEM 5% FBS culture medium to obtain 4% DMSO (7×).
To perform the assay, 7 μL of the freshly prepared 4% DMSO serial dilution plate is added to the assay plate containing […] of MRC-5 cells plated the day before (10000 cells per well). Seventeen μL of diluted virus is added to columns 2-12 and 14-24 and only D-MEM 5% FBS medium to uninfected control (columns 1 and 13) for a final DMSO concentration of 0.6%. The virus dilution is based on the amount of virus required to obtain the highest luciferase signal possible without CPE (generally between 0.05 and 1 μL of virus stock per well or MOI=0.02). The assay plates are incubated at 37° C. with 5% CO2 for 3 days. Fifteen μL of room temperature BIGlo buffer is added to room temperature assay plates also incubated at room temperature for 15 minutes. The plates are sealed with TopSeal for biosafety and the luminescence signal is read on the TopCount plate reader (Perkin-Elmer) or equivalent.

[2] = tested on: HCMV AD169 virus; assay: HCMV AD169 CPE Assay (Example A); assay type: cell-based; details: Human betaherpesvirus 5, AD169, MRC5, 216 h, MRC-5 cells, 9 days, MTS readout
Procedure: This assay format is a CPE (Cytopathic effect)-based assay that determines the ability of compounds to protect cells against infection with a dye reduction assay (MTS of CellTiter 96® AQueous Non-Radioactive Cell Proliferation Assay from Promega). The conversion of MTS into aqueous, soluble formazan is performed by dehydrogenase enzymes found in metabolically active cells. The quantity of formazan product determined by absorbance at 490 nm is directly proportional to the number of living cells in culture.
as §1
To perform the assay, 10 µL of the freshly prepared 4% DMSO serial dilution plate is added to the assay plate containing 40 μL of MRC-5 cells plated the day before (10000 cells per well). Twenty μL of diluted virus is added to columns 2-12 and 14-24 and only D-MEM 5% FBS medium to uninfected control (columns 1 and 13) for a final DMSO concentration of 0.6%.
The virus dilution is based on the amount of virus required to obtain a Signal-to-Background of 3-4 (generally between 0.1 and 1 μL of virus stock per well or MOI=0.05). The assay plates are incubated at 37° C. with 5% CO2 for 9 days in order to obtain 100% CPE in infected control without compound (columns 12 and 24). Ten μL of freshly mixed room temperature MTS/PMS (1:20 v/v) is added and the plates are incubated at 37° C. with 5% CO2 for 4-5 h (until signal saturation at 2.3 in the 100% CPE control). The plates are sealed with TopSeal for biosafety and read on the Envision plate reader (Perkin-Elmer) or equivalent at OD 492 nm.

[3] = tested on: HCMV AD169 virus; assay: HCMV AD169 qPCR 96-Well Assay (Example C); assay type: cell-based; details: Human betaherpesvirus 5, AD169, MRC5, 72 h; qPCR of viral DNA, MRC-5 cells, 3 days
Procedure: The hCMV quantitative PCR (qPCR) assay evaluates the ability of a compound to inhibit, directly or indirectly, the replication of hCMV viral DNA during the first 72 h following the infection. Compounds that inhibit either entry or the hCMV polymerase are active in this assay. Compounds are tested in the qPCR assay in 96-well plates, using a 9-point dose-response with 8 compounds for each 96-well plate. The assay was adapted from the method described by Schnepf et al., Rapid determination of antiviral drug susceptibility of human cytomegalovirus by real-time PCR, Antiviral Research 81 (2009) 64-67.
Final Concentrations: • 10 mM Tris-HCl pH8.0 • 50 mM KCl • 2 mM MgCl2 • 0.45% Tween20 • 0.45% Nonidet P40
Serial dilutions of the DMSO stock compound solution are performed using DMSO in columns 2-10. DMSO alone is present in columns 1 and 11. Column 12 remains empty. Diluted compounds are further diluted with DMEM 5% FBS cell culture medium.
To perform the assay, 25 μL of inhibitor dilutions freshly prepared is added to the assay plate containing 50 μL of MRC-5 cells plated the day before (30000 cells per well). In a 9 point dose-response, column 1 contains mock infected cells and serves at negative control, with the appropriate concentration of DMSO, columns 2 to 10 contain compound dilutions and column 11 contains infected cells, with the appropriate concentration of DMSO and serves as the positive control. Column 12 serves for the standard curve in the qPCR process. Twenty-five μL of virus diluted in DMEM 5% FBS medium (to infect at MOI=0.05) is added to columns 2-11 and only D-MEM 5% FBS medium to uninfected control (column 1) for a final DMSO concentration of 0.6%. Incubate plates at 37° C. in 5% CO2 incubator for 3 days. Whole cell lysates are then obtained by adding 100 μL of Cell lysis buffer to each well including freshly added Proteinase K at a ratio of 1:5 (i.e. 200 μL Proteinase K:1000 μL Cell Lysis buffer) and incubating the assay plate at 56° C. for 1 h. Plates are centrifuged at 1300 rpm for 2 minutes to remove any condensation before proceeding with the qPCR.
The cell lysate is carefully pipetted up and down to mix well and diluted 1:40 in H2O to give a final dilution of 1:80 relative to the 100 μL of lysis buffer that Is added to the cells. 5 μL of diluted lysate is used for the qPCR reaction. An incubation of 5 minutes at 95° C. in a PCR machine is required to inactivate the Proteinase K. The cell lysates can be stored at −20° C. or used to perform qPCR immediately.
A 81 bp fragment of US17 gene from AD169 is amplified by PCR using primers qHCMV7 and qHCMV8. The PCR product is cloned into pCR4 TOPO vector (Invitrogen) and a clone harboring the insert is selected. A mitochondrial DNA is also added to normalize the HCMV copy number. Serial dilutions of the US17 plasmid and mitochondrial DNA are performed in heat-inactivated lysis buffer at the same dilution as the cell lysates (1:80). Usually, a standard curve ranging from 10E6 to 10E2 copies (per well) is suitable.
A typical qPCR reaction consists of the following:
A qPCR cycle consists of an initial denaturation of DNA and activation of the Taq enzyme at 95° C. for 10 min followed by 45 cycles of 15 seconds at 95° C. and 1 min at 60° C. Fluorescence is measured at each cycle, following the elongation step at 60° C. The reaction, data acquisition and analysis are performed using AppliedBiosystems 7500 Real time PCR system or other suitable real-time PCR system.

SMILES | EC50 [1] | EC50 [2] | EC50 [3]
Cn1c(-c2ccc(NC(=O)c3cscn3)cc2)cnc1-c1cccc(C(F)(F)F)c1 [Compound 1096] | 665 nM |  | 
CC(c1cccc(C(F)(F)F)c1)c1nc(-c2ccc(NC(=O)c3cscn3)cn2)c[nH]1 (centres unmarked) [Compound 1087] | 87 nM |  | 
CC(c1cccc(Cl)c1)c1ncc(-c2ccc(NC(=O)c3cscn3)cc2)[nH]1 (centres unmarked) [Compound 1086] | 118 nM | 355 nM | 
O=C(Nc1ccc(-c2nc(-c3cccc(Cl)c3)nn2CC(O)CO)cc1)c1cscn1 (centres unmarked) [Compound 1121] | 63 nM |  | 275 nM
O=C(Nc1ccc(-c2nc(-c3cccc(C(F)(F)F)c3)nn2CCCO)cc1)c1cscn1 [Compound 1034] | 59 nM | 275 nM | 
O=C(Nc1ccn(-c2nnc(-c3cccc(Cl)c3)[nH]2)c(=O)c1)c1cscn1 [Compound 1117] | 1450 nM |  | 3200 nM
O=C(Nc1ccn(-c2cccc(-c3cccc(Cl)c3)n2)c(=O)c1)c1cscn1 [Compound 1129] |  |  | 145 nM
Cc1cccc(-c2nnc(-c3ccc(NC(=O)c4cscn4)cc3)[nH]2)c1 [Compound 1070] | 93 nM | 510 nM | 
O=C(Nc1ccc(-c2ncc(-c3cccc(Cl)c3)[nH]2)cn1)c1cscn1 [Compound 1059] | 425 nM |  | 
O=C(Nc1ccc(-c2cnc(-c3cc(C(F)(F)F)cc(C(F)(F)F)c3)[nH]2)cc1)c1cscn1 [Compound 1016] | 35 nM | 135 nM | 
Cn1cc(-c2cccc(C(F)(F)F)c2)nc1-c1ccc(NC(=O)c2cscn2)cc1 [Compound 1097] | 60 nM | 280 nM | 
O=C(Nc1ccc(-c2cnc(NC(=O)C3(c4cccc(Cl)c4)CCC3)[nH]2)cc1)c1cscn1 [Compound 1004] | 7 nM | 98 nM | 
O=C(Nc1ccc(-c2nnc(-c3cccc(Cl)c3)[nH]2)cc1)c1csnn1 [Compound 1133] |  | 2050 nM | 
CC(O)(c1cccc(C(F)(F)F)c1)c1nc(-c2ccc(NC(=O)c3cscn3)cn2)cn1CCCO (centres unmarked) [Compound 1113] | 620 nM |  | 2100 nM
O=C(Nc1ccc(-c2ncc(-c3cccc(C(F)(F)F)c3)[nH]2)cc1)c1csnn1 [Compound 1139] | 111 nM | 260 nM | 
CC(O)(c1cccc(C(F)(F)F)c1)c1nc(-c2ccc(NC(=O)c3cscn3)cn2)c[nH]1 (centres unmarked) [Compound 1092] | 203 nM |  | 620 nM
C#CCn1cc(-c2ccc(NC(=O)c3cscn3)cc2)nc1-c1cccc(C(F)(F)F)c1 [Compound 1098] | 100 nM |  | 
O=C(Nc1ccc(-c2ncc(-c3cccc(Cl)c3)[nH]2)cc1)c1cscn1 [Compound 1045] | 66 nM | 345 nM | 
O=C(Nc1ccc(-c2nc(-c3cccc(C(F)(F)F)c3)nn2CCCN2CCOCC2)cc1)c1cscn1 [Compound 1077] | 180 nM | 903 nM | 
CC(O)(c1cccc(C(F)(F)F)c1)c1nc(-n2ccc(NC(=O)c3cscn3)cc2=O)cn1CCCOCc1ccccc1 (centres unmarked) [Compound 1118] | 460 nM |  | 970 nM
O=C(Nc1ccn(-c2cccc(Oc3cccc(Cl)c3)n2)c(=O)c1)c1cscn1 [Compound 1120] | 92 nM |  | 
CC(O)(c1cccc(C(F)(F)F)c1)c1nc(-n2ccc(NC(=O)c3cscn3)cc2=O)cn1CCCO (centres unmarked) [Compound 1119] | 770 nM |  | 2050 nM
CC(O)(c1cccc(C(F)(F)F)c1)c1cccc(-n2ccc(NC(=O)c3cscn3)cc2=O)n1 (centres unmarked) [Compound 1130] |  |  | 375 nM
Cc1c(Cl)cccc1-c1cn(C)c(-c2ccc(NC(=O)c3cscn3)nc2)n1 [Compound 1103] | 1170 nM |  | 5800 nM
CC(O)(c1cccc(C(F)(F)F)c1)c1nc(-c2ccc(NC(=O)c3cscn3)cn2)cn1CCCOCc1ccccc1 (centres unmarked) [Compound 1115] | 535 nM |  | 1160 nM
NC(=O)CCn1nc(-c2cccc(Cl)c2)nc1-c1ccc(NC(=O)c2cscn2)cc1 [Compound 1109] | 185 nM |  | 455 nM
CC(O)(c1cccc(C(F)(F)F)c1)c1nc(-n2ccc(NC(=O)c3cscn3)cc2=O)c[nH]1 (centres unmarked) [Compound 1114] | 150 nM |  | 596 nM
CC(c1cccc(C(F)(F)F)c1)c1nc(-n2ccc(NC(=O)c3cscn3)cc2=O)c[nH]1 (centres unmarked) [Compound 1116] | 27 nM |  | 160 nM
CC(c1cccc(C(F)(F)F)c1)c1nc(-c2ccc(NC(=O)c3cscn3)cn2)cn1CCCO (centres unmarked) [Compound 1111] | 1260 nM |  | 665 nM
